# System: CYP3A4
# Test: Human CYP 3A4 induction assay (mRNA, cryopreserved human hepatocytes)
# Type: in vitro ADME
# Settings: human hepatocytes, 10 uM test compound, 72 hours, mRNA, percent of control (rifampin positive control)
# Description: Human CYP 3A4 Induction Assay
# Cryopreserved human hepatocytes were seeded in 96-well collagen coated plates at 70,000 cells per well in hepatocyte plating media (HPM, final concentrations: 1× Dulbecco's Modified Eagle's Medium, 0.1 μM dexamethasone, 10% fetal bovine serum, 1× ITS, 1×PSG) followed by incubation at 37° C. under 5% CO2 and 90% relative humidity for 2 days to allow hepatocytes to form a confluent layer. On Day 3, hepatocytes were treated with either test compound or rifampin (20 μM, positive control for CYP3A induction) prepared in hepatocyte incubation media ((HIM, final concentrations: 1× William's Medium E, 0.1 μM dexamethasone, 1×ITS, 1×PSG). Treatment was performed for 72 hours with either 2 concentrations (2 μM or 10 μM) or a range of concentrations (0.001 μM to 100 μM) of the test compound to obtain full dose-response curve. Fresh media containing the relevant concentrations of the test compound was replaced every day until the samples were processed. After 72 hours of incubation, samples were processed for mRNA analysis using bDNA technology using manufacturer's instructions (Affymetrix, Fremont, Calif.). Cell viability was tested at the end of the experiment using MTT assay kit (Roche Diagnostics, Basel, Switzerland). Data was analyzed and presented as percent of control (POC) and Emax and EC50 obtained when appropriate according to guidance from Center for Drug Evaluation and Research (CDER), 2006, Guidance for Industry, Drug Interaction Studies—Study Design, Data Analysis, and Implications for Dosing and Labeling.
# Cryopreserved human hepatocytes were seeded in 96-well collagen coated plates at 70,000 cells per well in hepatocyte plating media (HPM, final concentrations: 1× Dulbecco's Modified Eagle's Medium, 0.1 μM dexamethasone, 10% fetal bovine serum, 1×ITS, 1×PSG) followed by incubation at 37° C. under 5% CO2 and 90% relative humidity for 2 days to allow hepatocytes to form a confluent layer. On Day 3, hepatocytes were treated with either test compound or rifampin (20 μM, positive control for CYP3A induction) prepared in hepatocyte incubation media ((HIM, final concentrations: 1× William's Medium E, 0.1 μM dexamethasone, 1×ITS, 1×PSG). Treatment was performed for 72 hours with either 2 concentrations (2 μM or 10 μM) or a range of concentrations (0.001 μM to 100 μM) of the test compound to obtain full dose-response curve. Fresh media containing the relevant concentrations of the test compound was replaced every day until the samples were processed. After 72 hours of incubation, samples were processed for mRNA analysis using bDNA technology using manufacturer's instructions (Affymetrix, Fremont, Calif.). Cell viability was tested at the end of the experiment using MTT assay kit (Roche Diagnostics, Basel, Switzerland). Data was analyzed and presented as percent of control (POC) and Emax and EC50 obtained when appropriate, as described in Halladay, J. et al, 2012, An “all-inclusive” 96-well cytochrome P450 induction method: Measuring enzyme activity, mRNA levels, protein levels, and cytotoxicity from one well using cryopreserved human hepatocytes, Pharmacological and Toxicological Methods, 66:270-275.
# The cytochrome P450 (CYP) is a well-known superfamily of enzymes that are responsible for the oxidative and reductive metabolic transformation of medications used in clinical practice. In addition, the CYP enzymes are commonly associated with causing many clinically relevant drug-drug interactions. Of the CYP enzymes, CYP3A4 is not only the most prevalent CYP enzyme in the liver and intestine, but is responsible for metabolism and elimination of approximately 50% of marketed drugs. In addition, CYP3A4 activity can be induced (or increased) or inhibited (decreased) in response to administration of certain drugs, thereby affecting concentrations of their own or certain concomitant drugs present in the body. […]
row,CYP3A4 mRNA Induct Hu 10 uM POC [%],SMILES
1,23.36,"COc1cc([C@@H]2C[C@H]2C(F)(F)F)c(C)cc1-n1c(=O)ccc2cc(S(=O)(=O)Nc3ncccn3)ccc21 (atropisomer, axis not shown; (P)) [Example 28, (P)-1-(2-methoxy-5-methyl-4-((1R,2R)-2-(trifluoromethyl)cyclopropyl)phenyl)-2-oxo-N-(pyrimidin-2-yl)-1,2-dihydroquinoline-6-sulfonamide]"
2,74.53,"COc1cc([C@H]2C[C@@H]2C(F)(F)F)c(C)cc1-n1c(=O)ccc2cc(S(=O)(=O)Nc3ncccn3)ccc21 (atropisomer, axis not shown; (P)) [Example 29, (P)-1-(2-methoxy-5-methyl-4-((1S,2S)-2-(trifluoromethyl)cyclopropyl)phenyl)-2-oxo-N-(pyrimidin-2-yl)-1,2-dihydroquinoline-6-sulfonamide]"
3,100.7,"COc1cc([C@H]2C[C@@H]2C2CC2)c(F)cc1-n1c(=O)ccc2cc(S(=O)(=O)Nc3ccon3)ccc21 (atropisomer, axis not shown; (P)) [Example 31, (P)-1-(4-((1R,2S)-[1,1′-bi(cyclopropan)]-2-yl)-5-fluoro-2-methoxyphenyl)-N-(isoxazol-3-yl)-2-oxo-1,2-dihydroquinoline-6-sulfonamide]"
4,12.69,"COc1cc([C@@H]2C[C@H]2C(F)(F)F)c(F)cc1-n1c(=O)ccc2cc(S(=O)(=O)Nc3ncns3)ccc21 (atropisomer, axis not shown; (P)) [Example 34, (P)-1-(5-fluoro-2-methoxy-4-((1R,2R)-2-(trifluoromethyl)cyclopropyl)phenyl)-2-oxo-N-(1,2,4-thiadiazol-5-yl)-1,2-dihydroquinoline-6-sulfonamide]"
5,53.28,"COc1cc([C@@H]2C[C@H]2C(F)(F)F)c(F)cc1-n1c(=O)ccc2cc(S(=O)(=O)Nc3ncco3)ccc21 (atropisomer, axis not shown; (P)) [Example 35, (P)-1-(5-fluoro-2-methoxy-4-((1R,2R)-2-(trifluoromethyl)cyclopropyl)phenyl)-N-(oxazol-2-yl)-2-oxo-1,2-dihydroquinoline-6-sulfonamide]"
6,102.8,"COc1cc([C@H]2C[C@@H]2C(F)(F)F)c(F)cc1-n1c(=O)ccc2cc(S(=O)(=O)Nc3ncco3)ccc21 (atropisomer, axis not shown; (P)) [Example 36, (P)-1-(5-fluoro-2-methoxy-4-((1S,2S)-2-(trifluoromethyl)cyclopropyl)phenyl)-N-(oxazol-2-yl)-2-oxo-1,2-dihydroquinoline-6-sulfonamide]"
7,16.39,"COc1cc([C@H]2C[C@@H]2C(F)(F)F)c(C#N)cc1-n1c(=O)ccc2cc(S(=O)(=O)Nc3ccon3)ccc21 (atropisomer, axis not shown; (P)) [Example 37, (P)-1-(5-cyano-2-methoxy-4-((1S,2S)-2-(trifluoromethyl)cyclopropyl)phenyl)-N-(isoxazol-3-yl)-2-oxo-1,2-dihydroquinoline-6-sulfonamide]"
8,29.06,"COc1cc([C@@H]2C[C@H]2C(F)(F)F)ccc1-n1c(=O)ccc2cc(S(=O)(=O)Nc3ccon3)ccc21 (atropisomer, axis not shown; (P)) [Example 38, (P)-N-(isoxazol-3-yl)-1-(2-methoxy-4-((1R,2R)-2-(trifluoromethyl)cyclopropyl)phenyl)-2-oxo-1,2-dihydroquinoline-6-sulfonamide]"
9,38.35,"COc1cc([C@H]2C[C@@H]2C(F)(F)F)ccc1-n1c(=O)ccc2cc(S(=O)(=O)Nc3ccon3)ccc21 (atropisomer, axis not shown; (P)) [Example 39, (P)-N-(isoxazol-3-yl)-1-(2-methoxy-4-((1S,2S)-2-(trifluoromethyl)cyclopropyl)phenyl)-2-oxo-1,2-dihydroquinoline-6-sulfonamide]"
10,26.89,"COc1cc([C@@H]2C[C@H]2C(F)(F)F)c(F)cc1-n1c(=O)cc(F)c2cc(S(=O)(=O)Nc3ccon3)ccc21 (atropisomer, axis not shown; (P)) [Example 44, (P)-4-fluoro-1-(5-fluoro-2-methoxy-4-((1R,2R)-2-(trifluoromethyl)cyclopropyl)phenyl)-N-(isoxazol-3-yl)-2-oxo-1,2-dihydroquinoline-6-sulfonamide]"
11,14.245,"COc1cc([C@@H]2C[C@H]2C(F)(F)F)ccc1-n1c(=O)ccc2cc(S(=O)(=O)Nc3ccon3)c(F)cc21 (atropisomer, axis not shown; (P)) [Example 47, (P)-7-fluoro-N-(isoxazol-3-yl)-1-(2-methoxy-4-((1R,2R)-2-(trifluoromethyl)cyclopropyl)phenyl)-2-oxo-1,2-dihydroquinoline-6-sulfonamide]"
12,54.02,"COc1cc([C@H]2C[C@@H]2C(F)(F)F)ccc1-n1c(=O)ccc2cc(S(=O)(=O)Nc3ccon3)c(F)cc21 (atropisomer, axis not shown; (P)) [Example 48, (P)-7-fluoro-N-(isoxazol-3-yl)-1-(2-methoxy-4-((1S,2S)-2-(trifluoromethyl)cyclopropyl)phenyl)-2-oxo-1,2-dihydroquinoline-6-sulfonamide]"
13,69.11,"COc1cc([C@H]2C[C@@H]2C(F)(F)F)c(Cl)cc1-n1c(=O)ccc2cc(S(=O)(=O)Nc3cccnn3)ccc21 (single isomer, unassigned) [Example 15]"
14,64.14,"COc1cc([C@H]2C[C@@H]2C(F)(F)F)c(C)cc1-n1c(=O)ccc2cc(S(=O)(=O)Nc3ccon3)ccc21 (single isomer, unassigned) [Example 27]"
15,13.21,"O=c1ccc2cc(S(=O)(=O)Nc3ccon3)ccc2n1-c1cc(F)c([C@H]2C[C@@H]2C(F)(F)F)cc1OC1CC1 (single isomer, unassigned) [Example 41]"
16,53.03,"COc1cc([C@H]2C[C@@H]2C(F)(F)F)c(F)cc1-n1c(=O)ccc2cc(S(=O)(=O)Nc3ccon3)c(F)cc21 (single isomer, unassigned) [Example 46]"
17,84.31,"COc1cc(C2CC2)c(F)cc1-n1c(=O)ccc2cc(S(=O)(=O)Nc3ccon3)ccc21 [A, 1-(4-cyclopropyl-5-fluoro-2-methoxyphenyl)-N-(isoxazol-3-yl)-2-oxo-1,2-dihydroquinoline-6-sulfonamide, reference compound]"
